Values of other authors in publication PMC9516332 (Frontiers in Oncology, 2022).
Where two headings read alike, the source gives them in different places.

Assays:
[1] = biological target: panel of 255 wild-type kinases (Homo sapiens, UniProt O14578); conditions: kinase CRIK, 1 µmol/L single concentration, cited from earlier work
[2] = biological target: T1, panel of 255 wild-type kinases (Homo sapiens, UniProt O60285); conditions: NuaK1, 1 µmol/L single concentration, cited from earlier work
T1 sequence (O60285 1-661): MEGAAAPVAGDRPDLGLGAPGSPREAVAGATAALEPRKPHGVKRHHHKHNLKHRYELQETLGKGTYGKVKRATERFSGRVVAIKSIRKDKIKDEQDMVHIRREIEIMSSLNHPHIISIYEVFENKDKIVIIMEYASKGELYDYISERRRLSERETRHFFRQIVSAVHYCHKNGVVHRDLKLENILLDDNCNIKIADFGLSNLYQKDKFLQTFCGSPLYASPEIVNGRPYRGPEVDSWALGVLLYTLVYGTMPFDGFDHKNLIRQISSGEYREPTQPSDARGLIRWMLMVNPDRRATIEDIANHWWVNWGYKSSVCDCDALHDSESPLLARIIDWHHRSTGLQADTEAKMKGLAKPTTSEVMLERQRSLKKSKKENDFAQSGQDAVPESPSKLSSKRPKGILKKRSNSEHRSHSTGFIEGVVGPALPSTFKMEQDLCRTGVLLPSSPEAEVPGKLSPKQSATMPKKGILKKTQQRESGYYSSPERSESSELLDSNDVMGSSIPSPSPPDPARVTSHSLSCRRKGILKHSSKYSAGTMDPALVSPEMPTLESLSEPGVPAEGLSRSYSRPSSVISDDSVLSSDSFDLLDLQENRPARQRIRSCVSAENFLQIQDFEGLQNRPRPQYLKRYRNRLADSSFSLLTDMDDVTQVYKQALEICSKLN

[3] = biological target: panel of 255 wild-type kinases (Homo sapiens, UniProt P29376); conditions: kinase LTK, 1 µmol/L single concentration, cited from earlier work
[4] = biological target: panel of 255 wild-type kinases (Homo sapiens, UniProt P42684); conditions: ARG kinase assay, 1 µmol/L single concentration, cited from earlier work
[5] = biological target: panel of 255 wild-type kinases (Homo sapiens, UniProt Q07912); conditions: ACK kinase assay, 1 µmol/L single concentration, cited from earlier work
[6] = biological target: panel of 255 wild-type kinases (Homo sapiens, UniProt Q16620); conditions: kinase TRKB, 1 µmol/L single concentration, cited from earlier work
[7] = biological target: T2, panel of 255 wild-type kinases (Homo sapiens, UniProt Q8IWQ3); conditions: BRSK2 kinase assay, 1 µmol/L single concentration, cited from earlier work
T2 sequence (Q8IWQ3 1-736): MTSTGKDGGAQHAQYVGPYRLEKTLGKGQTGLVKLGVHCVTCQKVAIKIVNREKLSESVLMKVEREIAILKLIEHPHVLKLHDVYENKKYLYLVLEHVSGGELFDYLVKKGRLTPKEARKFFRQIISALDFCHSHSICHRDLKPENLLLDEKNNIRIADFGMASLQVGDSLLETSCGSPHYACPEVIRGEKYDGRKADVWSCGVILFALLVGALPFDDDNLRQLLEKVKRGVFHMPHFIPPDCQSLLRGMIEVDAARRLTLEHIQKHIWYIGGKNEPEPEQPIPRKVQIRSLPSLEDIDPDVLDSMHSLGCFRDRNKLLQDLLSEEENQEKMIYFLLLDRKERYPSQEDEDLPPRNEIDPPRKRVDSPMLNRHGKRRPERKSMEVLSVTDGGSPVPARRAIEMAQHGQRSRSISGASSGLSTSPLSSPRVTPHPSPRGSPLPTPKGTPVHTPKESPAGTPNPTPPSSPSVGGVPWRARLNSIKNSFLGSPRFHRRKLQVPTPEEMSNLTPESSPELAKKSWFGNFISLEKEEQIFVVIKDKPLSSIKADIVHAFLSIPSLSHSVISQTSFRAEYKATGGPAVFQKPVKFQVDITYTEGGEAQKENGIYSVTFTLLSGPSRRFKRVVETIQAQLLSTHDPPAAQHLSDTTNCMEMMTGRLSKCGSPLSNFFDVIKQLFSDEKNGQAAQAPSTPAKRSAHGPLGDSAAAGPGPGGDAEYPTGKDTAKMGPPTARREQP

[8] = biological target: panel of 255 wild-type kinases (Homo sapiens, UniProt Q8N568); conditions: kinase DCAMKL2, 1 µmol/L single concentration, cited from earlier work
[9] = biological target: T3, panel of 255 wild-type kinases (Homo sapiens, UniProt Q96KB5); conditions: kinase PBK, 1 µmol/L single concentration, cited from earlier work
T3 sequence (Q96KB5 1-322): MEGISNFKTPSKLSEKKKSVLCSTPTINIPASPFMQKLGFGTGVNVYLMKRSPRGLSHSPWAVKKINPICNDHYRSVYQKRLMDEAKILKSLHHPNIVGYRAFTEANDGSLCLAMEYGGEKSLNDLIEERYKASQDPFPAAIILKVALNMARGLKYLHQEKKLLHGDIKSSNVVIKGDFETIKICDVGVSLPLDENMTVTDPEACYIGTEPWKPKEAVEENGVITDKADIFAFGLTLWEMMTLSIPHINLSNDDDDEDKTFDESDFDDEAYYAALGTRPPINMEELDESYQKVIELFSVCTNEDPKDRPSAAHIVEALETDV

[10] = biological target: panel of 255 wild-type kinases (Homo sapiens, UniProt Q9UKE5); conditions: kinase TNIK, 1 µmol/L single concentration, cited from earlier work
[11] = biological target: panel of 255 wild-type kinases (Homo sapiens, UniProt Q9Y3S1); conditions: kinase WNK2, 1 µmol/L single concentration, cited from earlier work
[12] = ref DOI: 10.1371/journal.pone.0092146
[13] = ref DOI: 10.1158/1535-7163.MCT-18-0877

Structure (SMILES) | %-inhibition at 1 µmol/L, CRIK [1, 12] [%] | %-inhibition, NuaK1 [2, 12] [%] | %-inhibition at 1 µmol/L, LTK [3, 12] [%] | %-inhibition ARG [4, 12] [%] | %-inhibition ACK [5, 12] [%] | %-inhibition at 1 µmol/L, TRKB [6, 12] [%] | %-inhibition BRSK2 [7, 12] [%] | %-inhibition at 1 µmol/L, DCAMKL2 [8, 12] [%] | %-inhibition at 1 µmol/L, PBK [9, 12] [%] | %-inhibition at 1 µmol/L, TNIK [10, 12] [%] | %-inhibition at 1 µmol/L, WNK2 [11, 12] [%] | further results
CCCS(=O)(=O)Nc1ccc(F)c(C(=O)c2c[nH]c3ncc(-c4ccc(Cl)cc4)cc23)c1F [vemurafenib] | -6 | 4 | 2.6 | 7 | 40 | 11 | -6 | -3.52 | -12 | 33 | 13 | 
CCc1cc2c(cc1N1CCC(N3CCOCC3)CC1)C(C)(C)c1[nH]c3cc(C#N)ccc3c1C2=O [alectinib] |  |  |  |  |  |  |  |  |  |  |  | %-inhibition at 1 µmol/L, CRIK [1, 13]: 2.31%; %-inhibition, NuaK1 [2, 13]: -19%; %-inhibition at 1 µmol/L, LTK [3, 13]: 99%; %-inhibition ARG [4, 13]: 1%; %-inhibition ACK [5, 13]: 42%; %-inhibition at 1 µmol/L, TRKB [6, 13]: 38%; %-inhibition BRSK2 [7, 13]: -2.35%; %-inhibition at 1 µmol/L, DCAMKL2 [8, 13]: 7%; %-inhibition at 1 µmol/L, PBK [9, 13]: -2.63%; %-inhibition at 1 µmol/L, TNIK [10, 13]: 31%; %-inhibition at 1 µmol/L, WNK2 [11, 13]: 1.16%
CC(=O)Nc1cccc(-n2c(=O)n(C3CC3)c(=O)c3c(Nc4ccc(I)cc4F)n(C)c(=O)c(C)c32)c1 [trametinib] | -4.25 | -0.634 | -7 | -4 | -5.39 | -3.4 | 5.38 | -2.4 | -3.79 | 3 | 1.45 | 
